Read-outs that look alike come from different tables or passages of the source.
Experiments:
[1] = in vivo; cited from earlier work
[2] = historical HIV population, atazanavir 400 mg QD; cited from earlier work
[3] = Plasma Cmin and Cmax of PI/NNRTI in HIV-positive women on cART (LC-MS/MS); type: in vivo, human; details: for Cmax at 2 h: female, human, oral, 400 mg, 2 hours post-dose
Method: Patients were asked to fast from midnight of the previous night. One hour before their scheduled morning dose the pre-dose blood collection was drawn (Cmin t) (alternative arrangements were made if the patient took their drugs in the evening). […] Concentrations of the PIs and the NNRTIs in plasma were measured simultaneously by sensitive and selective, validated high-performance liquid chromatography coupled to tandem mass-spectroscopy (LC-MS/MS). All samples were analyzed at the pharmacokinetic laboratory at the Ottawa Hospital Research Institute in Ottawa, Canada. The PK endpoints for each patient were determined by taking the median of the three weekly values for the Cmin and Cmax. The rationale for measuring drug levels at three separate time points was that there is potentially intra-individual variability in drug levels, especially for PIs. Using the median value for the endpoints eliminated outliers. The three drug level measurements allowed for the calculation of intra-patient variability. […] Next, for each subject the ratio of their median Cmin and Cmax for their main PI or NNRTI to this published drug level was calculated and used as the primary outcome as previously reported by Burger et al. […] Inter-patient variability of Cmin and Cmax for each antiretroviral drug was assessed by calculating the coefficient of variation (CV) using each individual’s median Cmin and Cmax. […] These values are summarized using median and IQR of the individual CVs. […] Finally, linear regression models were fit to assess correlates of the square root-transformed Cmin and Cmax ratios. […] The regression models included indicator variables to account for the different antiretroviral medications and each potential correlate was included separately in an adjusted model. Statistical analyses were performed using SAS Version 9.2 (SAS Institute, Cary, North Carolina, USA).

[4] = HIV-positive women, all doses of the drug pooled
[5] = compared among the antiretrovirals

COC(=O)N[C@H](C(=O)N[C@@H](Cc1ccccc1)[C@@H](O)CN(Cc1ccc(-c2ccccn2)cc1)NC(=O)[C@@H](NC(=O)OC)C(C)(C)C)C(C)(C)C [Atazanavir, atazanavir]
increase in AUC in women [1]: approximately 20% | Cmax Population mean [2]: 3.15 µg/mL | Cmin Intra-patient CV median (IQR) ([3]; HIV-positive women, 3 weekly visits, 400 QD): 57.4 (40.5-86.7) | Cmax median ratio to historical population mean (IQR) ([3]; HIV-positive women, 400 QD): 0.59 (0.31-0.94) | Cmax n (%) >1.5 Historical pop mean (percent of participants) ([3]; HIV-positive women, 400 QD): 0 (0.0%) | Cmin median ratio to historical population mean (IQR) ([3]; HIV-positive women, 400 QD): 0.78 (0.35-1.37) | Cmin n (%) >1.5 historical pop Mean (percent of participants) ([3]; HIV-positive women, 400 QD): 2 (22.2%) | Cmax median ratio to historical population mean (IQR) [3, 4]: 0.65 (0.44-0.87) | Cmax n (%) >1.5 Historical pop mean (percent of participants) [3, 4]: 0 (0.0%) | Cmin median ratio to historical population mean (IQR) [3, 4]: 0.95 (0.53-1.42) | Cmin n (%) >1.5 historical pop Mean (percent of participants) [3, 4]: 6 (22.2%) | Cmax Inter-patient CV ([3]; HIV-positive women, from individual median Cmax, 400 QD): 57.3% | Cmin Inter-patient CV ([3]; HIV-positive women, from individual median Cmin, 400 QD): 78.0% | Cmin Study participants median (IQR) ([3]; HIV-positive women, plasma, pre-dose, 400 mg QD, in ng/mL): 214 (95–373) | Cmin Mean (SD) ([3]; HIV-positive women, plasma, pre-dose, 400 QD, in ng/mL): 250.4 (195.4) | inter-patient variability, in words [3, 5]: greatest observed inter-patient variability | ratios of both Cmin and Cmax versus historical reference values, in words [3, 5]: lowest ratios | Cmax at 2 h ([3]; plasma, HIV-positive women, plasma, 400 mg QD, read-out: Cmax Study participants median (IQR)): 1.87 µg/mL | Cmax at 2 h ([3]; plasma, HIV-positive women, plasma, 400 QD, read-out: Cmax Mean (SD)): 2 µg/mL | Inter- and intra-patient variability, in words ([3]; particularly when not boosted with ritonavir): high

— paper PMC3679788, “Factors affecting antiretroviral pharmacokinetics in HIV-infected women with virologic suppression on combination antiretroviral therapy: a cross-sectional study” (BMC Infectious Diseases, 2013)
